From US20080312263A1, “PHARMACEUTICAL COMPOSITIONS FOR THE PREVENTION AND TREATMENT OF ATHEROSCLEROSIS” (UNIVERSITE RENE DESCARTES-PARIS 5, priority 2004, published 2008)
Entries after “also recorded” stand apart in the source; their conditions may differ.

How the values were obtained:
[1] = tested on: hypercholesterolemic rabbits; details: enriched diet over 12 to 16 weeks; cited from earlier work
Watanabe rabbits [2] = assay: Macroscopic study of the aortas: surface area of the lesions by planimetry; format: in vivo, rabbit
Method: After eight weeks, a sampling of serum (about 1 ml) is carried out then the animals are anaesthetized with an injection of heparinized pentobarbital, and finally sacrificed.
On the day of sacrifice, after anaesthesia, in the shortest possible time, the animal is opened along the whole length of the cervico-thoracic region. The aorta is incised as low as possible. Using curved scissors, the aorta is removed from the aortic arch as far as the level of the iliac bifurcation following the vertebral column. The aorta is first cleaned in physiological serum and the fatty tissues are removed from its external tunica. It is fixed for 20 minutes in a 2% paraformaldehyde-2% glutaraldehyde mixture then opened along its length. It is then again immersed in the same fixer for 24 hours, after which the aorta is rinsed in 70% ethanol, then stained with Soudan IV for 15 minutes. It is once again rinsed in 80% ethanol for 20 minutes then under running water for 1 hour (22). […] The images are analyzed by means of planimetry software (Scion Image) which makes it possible to determine the surface of the lesions. Finally the aorta is fixed in the same fixer with a view to microscopic study.

[3] = rabbit, in vivo
Method: Each animal is placed in an individual cage and receives a food ration of 200 g to 250 g per day.
(§1) The food intake is measured daily and the animals are weighed once a week. Plasma samples are taken every fifteen days from the marginal ear vein. The blood, collected in heparin tubes, is centrifuged (4° C., 2000 g, 15 minutes). Part of the plasma is deproteinized by a solution of sulphosalicylic acid (30%) then divided into aliquot fractions with a view to an assay of the amino acids. The remainder of the plasma is aliquoted into several fractions of about 200 μl, and stored at −80° C.
The plasmatic arginine, ornithine and citrulline concentrations are determined on a JEOL (Tokyo, Japan) amino acid analyzer. The amino acids are separated by cation-exchange chromatography. On leaving the column, they are developed by a ninhydrin stain reaction. The reaction obtained is quantified by photometry at 570 and 440 nm. The results are expressed in μmol/l.

[4] = Monitoring of the animals: weight and food intake; format: in vivo, rabbit; details: not included in the study
Method: Twenty-four Watanabe rabbits (Centre de Production Animale, Olivet, France) which are hyperlipidaemic due to an hereditary LDL-receptor (LDL-R) deficiency, homozygous, and six weeks old, are used. Each animal is placed in an individual cage and receives a food ration of 200 g to 250 g per day.
as §1

Watanabe rabbits [5] = assay: Lipid profile (plasmatic cholesterol, triglycerides, HDL, LDL) in treated Watanabe rabbits; format: in vivo, rabbit
Method: 2. […] The cholesterol is assayed according to an enzymatic colorimetric test using a cholesterol-esterase and a cholesterol-oxidase, followed by a reaction with a peroxidase. The latter reacts with hydrogen peroxide and releases a red derivative the stain intensity of which (measured between 550 and 700 nm) is directly proportional to the cholesterol concentration. The triglyceride assay is also based on this principle, using a lipase which releases glycerol, and a peroxidase which reacts with the hydrogen peroxide and forms a red compound. The HDL cholesterol is assayed by an enzymatic calorimetric test in two phases. The first selects the different lipid fractions by means of dextran sulphate. […] The results are expressed in mmol/l. The kits necessary for all these assays are supplied by RANDOX (Montpellier, France).

[6] = tested on: New Zealand White rabbits; details: 2.5 mg/kg/day; cited from earlier work
New Zealand White rabbit = details: cited from earlier work
Watanabe rabbits [7] = details: 16 weeks; cited from earlier work

For `N=C(N)NCCC[C@H](N)C(=O)O` [arginine, L-Arginine], the atheromatous plaque area [1] is given as “stabilization”, the “lesion surface smaller than the control by a factor” value (Watanabe rabbits [2]; T8) is given as 1.3 and the “surface area of the lesions (whole aorta)” value (Watanabe rabbits [2]; T8, versus the control, FIG. 10) is given as “smaller”. For the same compound, the “surface area of the lesions, distal half of the aorta” value (Watanabe rabbits [2]; T8, FIG. 11) was “no effect”, the “L-Arginine concentration in general” value [3] was “doubled” and the “plasmatic arginine concentration, at T4” value [3] was “doubled”. For the same compound, the “plasmatic arginine concentration, at T8” value [3] was “drops”, the “animals died before the end of the protocol” value [4] was “two animals” and the “effect on the plasmatic cholesterol” value (Watanabe rabbits [5]; 8 weeks treatment, versus control at T8, FIG. 3) was “no effect”. The “effect on the lipid profile” value (Watanabe rabbits [5]; arginine diet alone) was “no appreciable effect”, the “increase in the plasmatic cholesterol concentration” value (Watanabe rabbits [5]; between T0 and T8) was 30% and the “plasmatic triglycerides concentration, course” value (Watanabe rabbits [5]; between T0 and T8, FIG. 4) was “increases with age; also recorded: increase by more than half”.
In the case of `CC(C)c1c(C(=O)Nc2ccccc2)c(-c2ccccc2)c(-c2ccc(F)cc2)n1CC[C@@H](O)C[C@@H](O)CC(=O)O` [atorvastatin, Atorvastatin, reference compound], the “size of the lesions” value [6] is given as “reduction in the size of the lesions”, the “effect on LDL concentration” value (Watanabe rabbits [5]; FIG. 6, during treatment) is given as “induces a reduction” and the “reduction of the LDL fraction” value (Watanabe rabbits [5]; LDL calculated by Friedewald formula, between T0 and T8) is given as 27.16%.
In the case of `CC[C@H](C)C(=O)O[C@H]1C[C@@H](C)C=C2C=C[C@H](C)[C@H](CC[C@@H]3C[C@@H](O)CC(=O)O3)[C@H]21` [lovastatin], the reduction in cholesterol (New Zealand White rabbit; 16 weeks, New Zealand White rabbit) is listed as 32% and the plaque progression (New Zealand White rabbit; New Zealand White rabbits) is listed as “slowed down the plaque progression”.
For `O=C(O)C[C@H](O)C[C@H](O)/C=C/c1c(C2CC2)nc2ccccc2c1-c1ccc(F)cc1` [pitavastatin], the “reduction in plasmatic cholesterol” value (Watanabe rabbits [7]) is given as 28.6%.
